# Target: T1, JAK2 (Homo sapiens, UniProt O60674, V617F)
# T1 construct: their effect on JAK2 protein degradation in SET2 cells; host or cells: SET2 cells (human essential thrombocythemia)
# Experiment: Western blot quantitation of JAK2 degradation in SET2 cells
# Type: cell-based
# Settings: 5 μM compound, 8 hours treatment, western blot densitometry vs. DMSO vehicle
# Description: Example E. Western Blot Analysis of JAK2 Dependent SET2 Cells Treated with Compounds of the Present Disclosure
# SET2 cells (DSMZ, catalog number ACC 608) are isolated from a person with human essential thrombocythemia and carry the JAK2 V617F mutation.
# SET2 cells were cultured in RPMI culture medium (Gibco, catalog number 11875085) supplemented with 1% penicillin-streptomycin-glutamine (Thermo Fisher Scientific, catalog number 10378016) and 20% fetal bovine serum (Gibco, catalog number 10438034). Cultured cells were maintained at 37° C., 5% CO2 in the incubator.
# Approximately 1,000,000 cells/well were added in 6-well plate containing 1.5 ml culture media with specified concentrations of compounds of the present disclosure or DMSO control. Cells were treated with concentrations of 10 uM, 5 uM, 1 uM, and 0.5 uM. Proteasome inhibitor MG-132 (Cell signaling, catalog number 2194) was added at 20 uM to an additional 10 uM compound treatment. The treatment period was 8 hours. After 8 hours, cells were collected in 1.5 mL microcentrifuge tubes. Tubes were centrifuged at 1500 rpm for 5 min. Supernatant was aspirated and samples were washed with 1 mL of cold PBS. The samples were centrifuged again at 1500 rpm for 5 min, supernatant was aspirated. The sample pellets were lysed using 150 μL of 1× lysing buffer (Cell Signaling Technologies—catalog number 9803S) supplemented with 1× Halt™ Protease and Phosphatase Inhibitor Cocktail (Thermo Fisher Scientific—catalog number 78447). Using Pierce™ BCA Protein Assay Kit (Thermo Fisher Scientific—catalog number 23225), protein concentration of the samples were quantitated. After normalizing sample concentration to approximately 20 ug/well, samples were loaded onto 4-12% Tris-glycine gels. Gels were transferred to nitrocellulose membranes using iBlot 2 Dry Blotting System and iBlot™ 2 Transfer Stacks, nitrocellulose (Thermo Fisher Scientific—catalog number IB23001). Following transfer, membranes were blocked with StartingBlock (Thermo Fisher Scientific—catalog number 37543). After 1 hour of blocking membranes, they were probed for JAK2, pSTAT5, STAT5, CRBN, and GAPDH (Cell Signaling—catalog numbers 3230, 4322, 25656, 71810, and 5174 respectively).
# Compounds of the present disclosure were screened at various concentrations to determine their effect on JAK2 protein degradation in SET2 cells, using methods as described above. DMSO was used as the vehicle control with no PROTAC® added. Co-administration of 20 μM of the proteasome inhibitor MG-132 with the PROTAC® compound at its highest concentration (i.e., 5 or 10 μM) tested was conducted to support the hypothesis that the degradation was driven by the ubiquitin-proteosome system (UPS). Degradation was evaluated by western blot densitometry quantitation using the FluorChem M instrument software to analyze the intensity of the JAK2 band signal at various concentrations of PROTAC® compound vs. the JAK2 band signal of the DMSO vehicle. It is noted that ˜82% of JAK2 exists as the V617F mutant, with the remaining 18% of JAK2 being WT. Therefore, if the V617F mutant JAK2 is selectively degraded over the WT, the maximum degradation is ˜80%. Degradation was graded as A: […]; B: ≥40% to <60% degradation; C: ≥20% to <40% degradation, D: <20% to ≥10%; E<10%. ** refers to degradation at 0.5 μM.
# T1 sequence (O60674 whole entry V617F): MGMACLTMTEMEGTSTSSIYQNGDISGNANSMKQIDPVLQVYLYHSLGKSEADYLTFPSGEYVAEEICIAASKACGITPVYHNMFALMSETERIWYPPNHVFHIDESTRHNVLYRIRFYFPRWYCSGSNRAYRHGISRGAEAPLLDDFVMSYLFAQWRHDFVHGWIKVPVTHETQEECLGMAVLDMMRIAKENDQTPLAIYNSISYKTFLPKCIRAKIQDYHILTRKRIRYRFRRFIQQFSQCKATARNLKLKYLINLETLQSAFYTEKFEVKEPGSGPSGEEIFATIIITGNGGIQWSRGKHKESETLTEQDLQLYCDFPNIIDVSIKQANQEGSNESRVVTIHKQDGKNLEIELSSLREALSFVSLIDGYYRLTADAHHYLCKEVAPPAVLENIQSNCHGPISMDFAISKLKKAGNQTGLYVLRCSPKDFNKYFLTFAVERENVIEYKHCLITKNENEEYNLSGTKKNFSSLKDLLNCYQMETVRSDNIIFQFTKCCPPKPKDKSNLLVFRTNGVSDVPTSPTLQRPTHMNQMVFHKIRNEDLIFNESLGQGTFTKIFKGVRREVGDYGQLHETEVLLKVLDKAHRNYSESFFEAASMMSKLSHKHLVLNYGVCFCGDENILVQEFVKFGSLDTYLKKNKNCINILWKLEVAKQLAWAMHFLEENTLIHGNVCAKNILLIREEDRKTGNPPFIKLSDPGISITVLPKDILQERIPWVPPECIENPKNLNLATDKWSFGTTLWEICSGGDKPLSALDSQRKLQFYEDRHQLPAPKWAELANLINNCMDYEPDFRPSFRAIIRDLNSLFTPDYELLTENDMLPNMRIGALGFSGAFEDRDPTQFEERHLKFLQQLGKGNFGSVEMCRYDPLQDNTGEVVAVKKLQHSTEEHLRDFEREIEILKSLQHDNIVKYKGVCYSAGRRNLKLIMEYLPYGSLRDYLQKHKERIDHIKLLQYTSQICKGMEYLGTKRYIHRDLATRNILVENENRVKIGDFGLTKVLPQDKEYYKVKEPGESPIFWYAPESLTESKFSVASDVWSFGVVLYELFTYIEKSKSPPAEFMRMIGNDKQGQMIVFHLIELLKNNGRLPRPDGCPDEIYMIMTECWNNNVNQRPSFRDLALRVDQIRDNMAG
row,JAK2 % Degradation in SET2,Compound
1,E (E<10%),"COC(=O)N[C@@H]1CC[C@@H](n2c(=O)n(C)c3cnc4[nH]c(-c5ccc(C(=O)N6CCN(c7ccc8c(c7)C(=O)N(C7CCC(=O)NC7=O)C8=O)CC6)cc5)c(-c5ccc6c(cnn6C(C)C)c5)c4c32)C1 (stereo partly drawn) [Example 62, Methyl((1R,3R)-3-(7-(4-(4-(2-(2,6-dioxopiperidin-3-yl)-1,3-dioxoisoindolin-5-yl)piperazine-1-carbonyl)phenyl)-8-(1-isopropyl-1H-indazol-5-yl)-3-methyl-2-oxo-3,6-dihydroimidazo[4,5-d]pyrrolo[2,3-b]pyridin-1(2H)-yl)cyclopentyl)carbamate]"
2,C (C: ≥20% to <40% degradation),"COC(=O)N[C@@H]1CC[C@@H](n2c(=O)n(C)c3cnc4[nH]c(-c5ccc(C(=O)N6CCC(CN7CCN(c8cccc9c8C(=O)N(C8CCC(=O)NC8=O)C9)CC7)CC6)cc5)c(-c5ccc6c(cnn6C(C)C)c5)c4c32)C1 (stereo partly drawn) [Example 63, Methyl((1R,3R)-3-(7-(4-(4-((4-(2-(2,6-dioxopiperidin-3-yl)-3-oxoisoindolin-4-yl)piperazin-1-yl)methyl)piperidine-1-carbonyl)phenyl)-8-(1-isopropyl-1H-indazol-5-yl)-3-methyl-2-oxo-3,6-dihydroimidazo[4,5-d]pyrrolo[2,3-b]pyridin-1(2H)-yl)cyclopentyl)carbamate]"

# Same assay, conditions: 10 μM compound, 8 hours treatment, western blot densitometry vs. DMSO vehicle
row,JAK2 % Degradation in SET2,Compound
1,C (C: ≥20% to <40% degradation),"CN[C@@H](C)C(=O)N[C@H](C(=O)N1C[C@@H](NC(=O)[C@H]2CC[C@H](CNC(=O)c3ccc(-c4[nH]c5ncc6c(c5c4-c4ccc5c(cnn5C(C)C)c4)n([C@@H]4CC[C@@H](NC(=O)OC)C4)c(=O)n6C)cc3F)CC2)C[C@H]1C(=O)N[C@@H]1CCCc2ccccc21)C1CCCCC1 [Example 47, Methyl((1R,3R)-3-(7-(4-((((trans)-4-(((3S,5S)-1-((S)-2-cyclohexyl-2-((S)-2-(methylamino)propanamido)acetyl)-5-(((R)-1,2,3,4-tetrahydronaphthalen-1-yl)carbamoyl)pyrrolidin-3-yl)carbamoyl)cyclohexyl)methyl)carbamoyl)-3-fluorophenyl)-8-(1-isopropyl-1H-indazol-5-yl)-3-methyl-2-oxo-3,6-dihydroimidazo[4,5-d]pyrrolo[2,3-b]pyridin-1(2H)-yl)cyclopentyl)carbamate]"
2,B (B: ≥40% to <60% degradation),"CN[C@@H](C)C(=O)N[C@H](C(=O)N1C[C@@H](NC(=O)COCCOCCNC(=O)c2ccc(-c3[nH]c4ncc5c(c4c3-c3ccc4c(cnn4C(C)C)c3)n([C@@H]3CC[C@@H](NC(=O)OC)C3)c(=O)n5C)cc2F)C[C@H]1C(=O)N[C@@H]1CCCc2ccccc21)C1CCCCC1 [Example 51, Methyl((1R,3R)-3-(7-(4-((2-(2-(2-(((3S,5S)-1-((S)-2-cyclohexyl-2-((S)-2-(methylamino)propanamido)acetyl)-5-(((R)-1,2,3,4-tetrahydronaphthalen-1-yl)carbamoyl)pyrrolidin-3-yl)amino)-2-oxoethoxy)ethoxy)ethyl)carbamoyl)-3-fluorophenyl)-8-(1-isopropyl-1H-indazol-5-yl)-3-methyl-2-oxo-3,6-dihydroimidazo[4,5-d]pyrrolo[2,3-b]pyridin-1(2H)-yl)cyclopentyl)carbamate]"
3,C (C: ≥20% to <40% degradation),"COC(=O)N[C@@H]1CC[C@@H](n2c(=O)n(C)c3cnc4[nH]c(-c5ccc(C(=O)N6CCC(CC(=O)Nc7ccc8c(c7)CN(C7CCC(=O)NC7=O)C8=O)CC6)c(F)c5)c(-c5ccc6c(cnn6C(C)C)c5)c4c32)C1 (stereo partly drawn) [Example 53, Methyl((1R,3R)-3-(7-(4-(4-(2-((2-(2,6-dioxopiperidin-3-yl)-1-oxoisoindolin-5-yl)amino)-2-oxoethyl)piperidine-1-carbonyl)-3-fluorophenyl)-8-(1-isopropyl-1H-indazol-5-yl)-3-methyl-2-oxo-3,6-dihydroimidazo[4,5-d]pyrrolo[2,3-b]pyridin-1(2H)-yl)cyclopentyl)carbamate]"
4,C (C: ≥20% to <40% degradation),"COC(=O)N[C@@H]1CC[C@@H](n2c(=O)n(C)c3cnc4[nH]c(-c5ccc(C(=O)NC[C@H]6CC[C@H](C(=O)Nc7ccc8c(c7)CN(C7CCC(=O)NC7=O)C8=O)CC6)c(F)c5)c(-c5ccc6c(cnn6C(C)C)c5)c4c32)C1 (stereo partly drawn) [Example 54, Methyl((1R,3R)-3-(7-(4-((((trans-)-4-((2-(2,6-dioxopiperidin-3-yl)-1-oxoisoindolin-5-yl)carbamoyl)cyclohexyl)methyl)carbamoyl)-3-fluorophenyl)-8-(1-isopropyl-1H-indazol-5-yl)-3-methyl-2-oxo-3,6-dihydroimidazo[4,5-d]pyrrolo[2,3-b]pyridin-1(2H)-yl)cyclopentyl)carbamate]"
5,E (E<10%),"COC(=O)N[C@@H]1CC[C@@H](n2c(=O)n(C)c3cnc4[nH]c(-c5ccc(C(=O)N6CCC(C(=O)Nc7ccc8c(c7)CN(C7CCC(=O)NC7=O)C8=O)CC6)c(F)c5)c(-c5ccc6c(cnn6C(C)C)c5)c4c32)C1 (stereo partly drawn) [Example 58, Methyl((1R,3R)-3-(7-(4-(4-((2-(2,6-dioxopiperidin-3-yl)-1-oxoisoindolin-5-yl)carbamoyl)piperidine-1-carbonyl)-3-fluorophenyl)-8-(1-isopropyl-1H-indazol-5-yl)-3-methyl-2-oxo-3,6-dihydroimidazo[4,5-d]pyrrolo[2,3-b]pyridin-1(2H)-yl)cyclopentyl)carbamate]"
6,C (C: ≥20% to <40% degradation),"COC(=O)N[C@@H]1CC[C@@H](n2c(=O)n(C)c3cnc4[nH]c(-c5ccc(C(=O)N6CCC(C(=O)Nc7ccc8c(c7)CN(C7CCC(=O)NC7=O)C8=O)CC6)cc5)c(-c5ccc6c(cnn6C(C)C)c5)c4c32)C1 (stereo partly drawn) [Example 60, Methyl((1R,3R)-3-(7-(4-(4-((2-(2,6-dioxopiperidin-3-yl)-1-oxoisoindolin-5-yl)carbamoyl)piperidine-1-carbonyl)phenyl)-8-(1-isopropyl-1H-indazol-5-yl)-3-methyl-2-oxo-3,6-dihydroimidazo[4,5-d]pyrrolo[2,3-b]pyridin-1(2H)-yl)cyclopentyl)carbamate]"
7,C (C: ≥20% to <40% degradation),"COC(=O)N[C@@H]1CC[C@@H](n2c(=O)n(C)c3cnc4[nH]c(-c5ccc(C(=O)N6CCC(CC(=O)Nc7ccc8c(c7)CN(C7CCC(=O)NC7=O)C8=O)CC6)cc5)c(-c5ccc6c(cnn6C(C)C)c5)c4c32)C1 (stereo partly drawn) [Example 61, Methyl((1R,3R)-3-(7-(4-(4-(2-((2-(2,6-dioxopiperidin-3-yl)-1-oxoisoindolin-5-yl)amino)-2-oxoethyl)piperidine-1-carbonyl)phenyl)-8-(1-isopropyl-1H-indazol-5-yl)-3-methyl-2-oxo-3,6-dihydroimidazo[4,5-d]pyrrolo[2,3-b]pyridin-1(2H)-yl)cyclopentyl)carbamate]"

# From patent US20250092043A1, “Kinase Inhibitors and Degraders” (Incyte Corporation, priority 2023, published 2025)
